Test results reported in publication PMC9599704, “Liposomal Entrapment or Chemical Modification of Relaxin2 for Prolongation of Its Stability and Biological Activity” (Biomolecules, 2022).

Test: in vitro
Procedure: Samples were placed separately in hermetically sealed screw-tubes (to avoid evaporation) and then in an orbital incubator (Stuart S1500, UK) set at 50 rpm and 37 °C, for a period of up to 30 d. […] For quantification of free or liposomal peptides in the presence of 80% FBS, serum proteins precipitation was accomplished by mixing one volume of sample (100 μL) with three volumes (300 μL) of acidified isopropanol (with 0.1% TFA), followed by vortex agitation and centrifugation at 15000 rpm for 15 min. Next, the supernatant was transferred to a new eppendorf tube and 400 μL of HEPES (pH 5.0) were added, followed by vigorous vortex for 1 min, in order to retrieve the peptide. Finally, the samples were analyzed by HPLC, based on a calibration curve constructed at the exact same conditions as the samples to be analyzed.
For direct comparison of the stability of the different peptides, the results were normalized and expressed as the percentage of the corresponding initial peptide concentration measured at time point 0, for each peptide and each formulation (solution or liposome). Experiments were carried out in triplicate, and the results are expressed as the mean value ± standard deviation.

CC[C@H](C)[C@@H]1NC(=O)[C@H](C)NC(=O)[C@H]([C@@H](C)CC)NC(=O)[C@H](CCC(N)=O)NC(=O)[C@H](C)NC(=O)[C@H](CCCNC(=N)N)NC(=O)[C@H](C(C)C)NC(=O)[C@H](CC(C)C)NC(=O)[C@H](CCC(=O)O)NC(=O)[C@H](CCCNC(=N)N)NC(=O)CNC(=O)[C@@H](NC(=O)[C@H](CC(C)C)NC(=O)[C@H](CCCCN)NC(=O)[C@@H](NC(=O)[C@@H](NC(=O)[C@H](CCC(=O)O)NC(=O)[C@H](CCC(=O)O)NC(=O)[C@H](CCSC)NC(=O)[C@H](Cc2c[nH]c3ccccc23)NC(=O)[C@H](CO)NC(=O)[C@@H](N)CC(=O)O)C(C)C)[C@@H](C)CC)CSSC[C@@H]2NC(=O)[C@@H](NC(=O)[C@H](CCCCN)NC(=O)[C@H](CC(N)=O)NC(=O)[C@H](C)NC(=O)[C@H](CC(C)C)NC(=O)[C@H](C)NC(=O)[C@H](CO)NC(=O)[C@H](Cc3ccc(O)cc3)NC(=O)[C@H](CC(C)C)NC(=O)[C@@H]3CCC(=O)N3)CSSC[C@H](NC(=O)CNC(=O)[C@H](C(C)C)NC(=O)[C@H](Cc3c[nH]cn3)NC2=O)C(=O)N[C@@H]([C@@H](C)O)C(=O)N[C@@H](CCCCN)C(=O)N[C@@H](CCCNC(=N)N)C(=O)N[C@@H](CO)C(=O)N[C@@H](CC(C)C)C(=O)N[C@@H](C)C(=O)N[C@@H](CCCNC(=N)N)C(=O)N[C@@H](Cc2ccccc2)C(=O)N[C@H](C(=O)O)CSSC[C@@H](C(=O)NCC(=O)N[C@@H](CC[S+](C)[O-])C(=O)N[C@@H](CO)C(=O)N[C@H](C(=O)N[C@@H](Cc2c[nH]c3ccccc23)C(=O)N[C@@H](CO)C(=O)O)[C@@H](C)O)NC1=O (some centres unmarked) [O-RLX2, Met (O)^25-human relaxin 2]
peptide remaining after 10 d of incubation in FBS (FBS 80% v/v, 37 °C, 10 d, 58 ± 5.0 μg/mL peptide, HPLC, % of initial concentration, triplicate): all the free O-RLX2 peptide was degraded
half-life (fetal bovine serum (FBS) 80% v/v): 83.5 h
